Drawing on the supplement of paper PMC10307832, this text covers relative viability for seven cell lines.

Common to all, as to test: relative viability (nuclei count vs DMSO), 5 days (fraction); higher = more cells survive
Compound in assay [1]: C1=CC2=NC=CN=C2C=C1/C=C/3\C(=O)NC(=O)S3 + N=C(N)NC(=N)NCCc1ccccc1 [Phenformin] (partner 250 µM)
The method in brief:
(§1)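 Relative viability is defined as nuclei in treated wells over nuclei in vehicle wells. Duplicate plates were run and medians reported. Lung cancer cell lines in 1536-well plates were dosed by pin tool one day after seeding, with one drug or with a fixed anchor-drug dose plus five library-drug doses (not always all listed) in √10 steps, and nuclei were counted after 5 days.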

Compound in assay [2]: CCN1CCN(c2ccc(Nc3cc(N(C)C(=O)Nc4c(Cl)c(OC)cc(OC)c4Cl)ncn3)cc2)CC1 [BGJ398] + C[C@]1(O)C[C@@H](c2nc(-c3ccc4ccc(-c5ccccc5)nc4c3)c3c(N)nccn32)C1 [Linsitinib] (partner 1 µM)
The method in brief: as §1

Compound in assay [3]: C1=CC2=NC=CN=C2C=C1/C=C/3\C(=O)NC(=O)S3 + CCNC(=O)c1noc(-c2cc(C(C)C)c(O)cc2O)c1-c1ccc(CN2CCOCC2)cc1 [Luminespib] (partner 0.01 µM)
The method in brief:
as §1

Compound in assay [4]: C1=CC2=NC=CN=C2C=C1/C=C/3\C(=O)NC(=O)S3 + Nc1ncn([C@H]2C[C@H](O)[C@@H](CO)O2)c(=O)n1 [Decitabine] (partner 2 µM)
In outline: as §1

With NCI-H1651, the relative viability came to 0.314 in assay [1] (first compound 0.02 µM); 0.321 in assay [1] (first compound 0.06325 µM); 0.325 in assay [1] (first compound 0.2 µM); 0.298 in assay [1] (first compound 0.6325 µM); 0.285 in assay [1] (first compound 2 µM); 0.874 in assay [2] (first compound 0.01 µM). The relative viability in assay [2] (first compound 0.03162 µM) was determined as 0.938; in assay [2] (first compound 0.1 µM), 1.05; in assay [2] (first compound 0.3162 µM), 1.04; in assay [2] (first compound 1 µM) it was 0.895; in assay [3] (first compound 0.02 µM), 0.848; in assay [3] (first compound 0.06325 µM), 0.842. The relative viability in assay [3] (first compound 0.2 µM) came to 0.77; in assay [3] (first compound 0.6325 µM), 0.753; in assay [3] (first compound 2 µM), 0.842; in assay [4] (first compound 0.02 µM) it was 0.56; in assay [4] (first compound 0.06325 µM) it was 0.424; in assay [4] (first compound 0.2 µM), 0.651. The relative viability was determined as 0.576 in assay [4] (first compound 0.6325 µM) and 0.552 in assay [4] (first compound 2 µM).

Regarding NCI-H1755, the relative viability was 0.578 in assay [1] (first compound 0.02 µM); 0.625 in assay [1] (first compound 0.06325 µM); 0.588 in assay [1] (first compound 0.2 µM); 0.62 in assay [1] (first compound 0.6325 µM); 0.562 in assay [1] (first compound 2 µM); 0.93 in assay [2] (first compound 0.01 µM). The relative viability is 1.01 in assay [2] (first compound 0.03162 µM); 0.983 in assay [2] (first compound 0.1 µM); 0.955 in assay [2] (first compound 0.3162 µM); 1.01 in assay [2] (first compound 1 µM); 0.433 in assay [3] (first compound 0.02 µM); 0.329 in assay [3] (first compound 0.06325 µM). The relative viability was determined as 0.606 in assay [3] (first compound 0.2 µM); 0.244 in assay [3] (first compound 0.6325 µM); 0.352 in assay [3] (first compound 2 µM); 0.74 in assay [4] (first compound 0.02 µM); 0.628 in assay [4] (first compound 0.06325 µM); 0.729 in assay [4] (first compound 0.2 µM). Besides, the relative viability in assay [4] (first compound 0.6325 µM) turned out to be 0.689; in assay [4] (first compound 2 µM), 0.685.

Consider NCI-H661, for which the relative viability in assay [1] (first compound 0.02 µM) was determined as 0.239; in assay [1] (first compound 0.06325 µM), 0.393; in assay [1] (first compound 0.2 µM), 0.289; in assay [1] (first compound 0.6325 µM), 0.298; in assay [1] (first compound 2 µM), 0.249; in assay [2] (first compound 0.01 µM), 0.531. In addition, the relative viability was found to be 0.77 in assay [2] (first compound 0.03162 µM); 0.644 in assay [2] (first compound 0.1 µM); 0.678 in assay [2] (first compound 0.3162 µM); 0.548 in assay [2] (first compound 1 µM); 0.958 in assay [3] (first compound 0.02 µM); 0.961 in assay [3] (first compound 0.06325 µM). The relative viability in assay [3] (first compound 0.2 µM) is 0.937; in assay [3] (first compound 0.6325 µM) it was 0.943; in assay [3] (first compound 2 µM), 1.05; in assay [4] (first compound 0.02 µM) it was 0.555; in assay [4] (first compound 0.06325 µM), 0.571; in assay [4] (first compound 0.2 µM) it was 0.574. Also, the relative viability in assay [4] (first compound 0.6325 µM) was 0.527; in assay [4] (first compound 2 µM) it was 0.575.

Turning to HARA, the relative viability in assay [1] (first compound 0.02 µM) was 0.451; in assay [1] (first compound 0.06325 µM) it was 0.384; in assay [1] (first compound 0.2 µM) it was 0.395; in assay [1] (first compound 0.6325 µM) it was 0.428; in assay [1] (first compound 2 µM) it was 0.422; in assay [2] (first compound 0.01 µM), 0.845. Moreover, the relative viability in assay [2] (first compound 0.03162 µM) is 0.856; in assay [2] (first compound 0.1 µM) it was 0.903; in assay [2] (first compound 0.3162 µM), 0.978; in assay [2] (first compound 1 µM), 0.902; in assay [3] (first compound 0.02 µM), 0.811; in assay [3] (first compound 0.06325 µM), 0.643. Besides, the relative viability worked out at 0.706 in assay [3] (first compound 0.2 µM); 0.742 in assay [3] (first compound 0.6325 µM); 0.797 in assay [3] (first compound 2 µM); 0.537 in assay [4] (first compound 0.02 µM); 0.587 in assay [4] (first compound 0.06325 µM); 0.498 in assay [4] (first compound 0.2 µM). The relative viability in assay [4] (first compound 0.6325 µM) was found to be 0.614; in assay [4] (first compound 2 µM) it was 0.63.

On to NCI-H596, for which the relative viability was 0.744 in assay [1] (first compound 0.02 µM); 0.66 in assay [1] (first compound 0.06325 µM); 0.742 in assay [1] (first compound 0.2 µM); 0.675 in assay [1] (first compound 0.6325 µM); 0.714 in assay [1] (first compound 2 µM); 0.864 in assay [2] (first compound 0.01 µM). Moreover, the relative viability in assay [2] (first compound 0.03162 µM) turned out to be 1; in assay [2] (first compound 0.1 µM), 1.12; in assay [2] (first compound 0.3162 µM), 0.957; in assay [2] (first compound 1 µM), 0.942; in assay [3] (first compound 0.02 µM) it was 1.13; in assay [3] (first compound 0.06325 µM), 1.13. Moreover, the relative viability in assay [3] (first compound 0.2 µM) is 1.15; in assay [3] (first compound 0.6325 µM), 0.991; in assay [3] (first compound 2 µM), 0.939; in assay [4] (first compound 0.02 µM), 0.886; in assay [4] (first compound 0.06325 µM), 0.954; in assay [4] (first compound 0.2 µM), 1.09. In addition, the relative viability in assay [4] (first compound 0.6325 µM) is 0.972; in assay [4] (first compound 2 µM), 1.72.

Regarding NCI-H23, the relative viability came to 0.79 in assay [1] (first compound 0.02 µM); 0.716 in assay [1] (first compound 0.06325 µM); 0.825 in assay [1] (first compound 0.2 µM); 0.781 in assay [1] (first compound 0.6325 µM); 0.729 in assay [1] (first compound 2 µM); 0.582 in assay [2] (first compound 0.01 µM). Moreover, the relative viability in assay [2] (first compound 0.03162 µM) was 0.597; in assay [2] (first compound 0.1 µM), 0.564; in assay [2] (first compound 0.3162 µM) it was 0.568; in assay [2] (first compound 1 µM), 0.48; in assay [3] (first compound 0.02 µM), 0.254; in assay [3] (first compound 0.06325 µM), 0.219. For the same cell line, the relative viability in assay [3] (first compound 0.2 µM) was 0.219; in assay [3] (first compound 0.6325 µM) it was 0.217; in assay [3] (first compound 2 µM), 0.184; in assay [4] (first compound 0.02 µM) it was 0.329; in assay [4] (first compound 0.06325 µM), 0.357; in assay [4] (first compound 0.2 µM), 0.322. The relative viability in assay [4] (first compound 0.6325 µM) was found to be 0.286; in assay [4] (first compound 2 µM), 0.3.

Regarding LCLC-97TM1, the relative viability in assay [1] (first compound 0.02 µM) came out at 0.389; in assay [1] (first compound 0.06325 µM), 0.374; in assay [1] (first compound 0.2 µM), 0.423; in assay [1] (first compound 0.6325 µM), 0.432; in assay [1] (first compound 2 µM) it was 0.162; in assay [2] (first compound 0.01 µM), 0.169. Also, the relative viability in assay [2] (first compound 0.03162 µM) was 0.159; in assay [2] (first compound 0.1 µM), 0.194; in assay [2] (first compound 0.3162 µM), 0.212; in assay [2] (first compound 1 µM), 0.186; in assay [3] (first compound 0.02 µM) it was 0.767; in assay [3] (first compound 0.06325 µM) it was 0.839. Besides, the relative viability was 0.823 in assay [3] (first compound 0.2 µM); 0.671 in assay [3] (first compound 0.6325 µM); 0.499 in assay [3] (first compound 2 µM); 0.293 in assay [4] (first compound 0.02 µM); 0.244 in assay [4] (first compound 0.06325 µM); 0.229 in assay [4] (first compound 0.2 µM). Also, the relative viability in assay [4] (first compound 0.6325 µM) is 0.247; in assay [4] (first compound 2 µM) it was 0.221.
